Measurements reported in US10894043B2, “Pharmaceutical composition” (Kyowa Kirin Co., Ltd., priority 2016, dated 2021).
Where a name gives a salt, the structure may show the parent alone.

Experiments:
in vivo = conditions: Brown Norway, iv
Method: This intravenous dosing solution is administered to a Brown Norway rat. After a given interval from the administration, for example, 24, 72 and 168 hours after the administration, blood is collected. Then, the rat is euthanized while the eyeballs are excised. A posterior eye tissue such as the choroid and/or the sclera, the retina, or the optic nerve is harvested therefrom. A given amount of an aqueous solution containing an organic solvent (e.g., a 50 vol % methanol solution) is added to the harvested posterior eye tissue, which is then homogenized, for example, to prepare an assay sample. The drug concentration in this assay sample can be measured using a liquid chromatograph-tandem mass spectrometer (LC/MS/MS) to measure the compound concentration in the posterior eye tissue in the case of systemic administration. The elimination half-life of the compound in the posterior eye tissue can be further calculated from time-dependent change in compound concentration in the posterior eye tissue.
Each compound was dissolved in DMA. […] Each intravenous dosing solution was administered (0.5 mL/kg) to the tail vein of each Brown Norway rat. Twenty-four, 72 and 168 hours after the administration, blood was collected. Then, the animal was euthanized, and the eyeballs were excised. The eyeballs were washed, and a choroid/sclera sample was then harvested.
A given amount of a 50 vol % methanol solution was added to the harvested choroid/sclera sample, which was then homogenized. Acetonitrile was further added thereto, and the mixture was stirred. The sample was centrifuged, and the supernatant was harvested. A 0.1 vol % formic acid solution was added thereto to prepare an assay sample. The drug concentration in the assay sample was measured using a liquid chromatograph-tandem mass spectrometer (LC/MS/MS).

[1] = Test Example 10: pharmacokinetics of compounds IV to VIII, single ocular instillation to rat, concentration in choroid/sclera; assay type: in vivo, Brown-Norway rat; conditions: rats, 1.5 hours
Method: 1.5 hours after the ocular instillation, blood was collected. Then, the animal was euthanized, and both the eyeballs were excised.
The sample was centrifuged, and the supernatant was harvested.

[2] = Test Example 3: pharmacokinetics, single ocular instillation to rat, concentration in choroid/sclera; assay type: in vivo, Brown Norway rat; conditions: rats, 4 hours
Method: The nanoparticle compositions of the present invention prepared in accordance with Examples 1 and 26 and the nanoparticle compositions of the present invention obtained in Examples 50, 52, 53, 54, 57 and 96 were evaluated for their pharmacokinetics when administered at a single dose by ocular instillation to rats. Each nanoparticle composition was administered at a single dose by ocular instillation to the right eyes of male Brown Norway rats (5 μL/eye, n=2 for each group). Four hours after the ocular instillation, each rat was euthanized, and the right eyeball was excised. The eyeball was washed, and a choroid/sclera sample was then harvested.
(§1) The sample was centrifuged, and the supernatant was harvested. A 10 mmol/L ammonium acetate solution was added thereto to prepare an assay sample.

[3] = Test Example 1: pharmacokinetics, single ocular instillation to rat, concentration in choroid/sclera; assay type: in vivo, Brown Norway rat; conditions: nanoparticle composition, mean particle size 1000 nm or smaller
Method: The nanoparticle compositions of the present invention obtained in Examples 19 and 24 and the microparticle compositions obtained in Comparative Examples 3 and 4 were evaluated for their pharmacokinetics when administered at a single dose by ocular instillation (4 to 12 μL/eye, n=2 for each group) to rats. Each nanoparticle composition was administered at a single dose by ocular instillation to the right eyes of male Brown Norway rats. Four to 7 hours after the ocular instillation, each rat was euthanized, and the right eyeball was excised. The eyeball was washed, and an eyeball tissue sample (choroid/sclera) was then harvested.
as §1

[4] = Test Example 6: pharmacokinetics, single ocular instillation to cynomolgus monkey, concentration in choroid; assay type: in vivo; conditions: cynomolgus monkeys
Method: The nanoparticle composition of the present invention prepared according to Example 1 and the microparticle composition prepared according to Comparative Example 1 were evaluated for their pharmacokinetics when administered at a single dose by ocular instillation to male cynomolgus monkeys. The nanoparticle composition of the present invention prepared according to Example 1 was administered by ocular instillation (50 μL/eye) to the right eye of each animal, while the microparticle composition prepared according to Comparative Example 1 was administered by ocular instillation (50 μL/eye) to the left eye thereof. Four hours or 48 hours (n=2 for each point in time) after the ocular instillation, blood was collected. […] The eyeballs were washed, and a choroid tissue was then harvested.
as §1

[5] = Test Example 5: pharmacokinetics, single ocular instillation to rabbit, compound III in choroid/retina; assay type: in vivo, Kbl:Dutch rabbit; conditions: rabbits, all particle sizes evaluated
Method: The nanoparticle compositions obtained in Reference Examples 11 to 13 and the microparticle composition prepared according to Comparative Example 1 were evaluated for their pharmacokinetics when administered at a single dose by ocular instillation (20 μL/eye) to Kbl:Dutch rabbits. Each of the nanoparticle compositions obtained in Reference Examples 11 to 13 and the microparticle composition prepared according to Comparative Example 1 was administered at a single dose by ocular instillation to the left eyes of the animals (n=3 for each condition). 1.5 hours after the ocular instillation, each animal was euthanized, and the eyeballs were excised. The eyeballs were washed, and a choroid/retina sample was then harvested.
as §1

[6] = rat, 0.2 mg/kg, Half-life in choroid and sclera

| SMILES | half-life (in vivo; [6]) [h] | also measured |
| --- | --- | --- |
| C=CC(=O)N1CCC(Oc2cc3c(Nc4ccc(Cl)c(Cl)c4F)ncnc3cc2OC)CC1 [poziotinib] | 31.9 | – |
| COc1cc2nccc(Oc3ccc(NC(=O)C4(C(=O)Nc5ccc(F)cc5)CC4)cc3)c2cc1OC [cabozantinib] | – | half-life (in vivo; in vivo, 0.2 mg/kg, Half-life in choroid and sclera, VEGF receptor inhibitors, intravenous single dose 0.2 mg/kg): 65.8 h |
| CNC(=O)c1ccccc1Sc1ccc2c(/C=C/c3ccccn3)n[nH]c2c1 [axitinib] | 57.4 | – |
| COc1cc2ncnc(Nc3cccc(Cl)c3F)c2cc1OC(=O)N1CCN(C)C[C@H]1C [AZD-3759, 4-[(3-chloro-2-fluorophenyl)amino]-7-methoxyquinazolin-6-yl (2R)-2,4-dimethylpiperazine-1-carboxylate] | 120 | – |
| COc1cc2nccc(Oc3ccc(NC(=O)NC4CC4)c(Cl)c3)c2cc1C(N)=O [Compound V, 4-[3-chloro-4-(cyclopropylcarbamoylamino)phenoxy]-7-methoxyquinoline-6-carboxamide] | 42.3 | – |
| COc1cc2c(Oc3ccc4[nH]c(C)cc4c3F)ccnc2cc1OCC1(N)CC1 [Compound IV, 1-[[4-[(4-fluoro-2-methyl-1H-indol-5-yl)oxy]-6-methoxyquinolin-7-yl]oxymethyl]cyclopropan-1-amine] | 141 | transfer to the choroid and/or the sclera, nanoparticle vs microparticle composition [1]: moderately improved transfer |
| COC(=O)c1ccc2c(c1)NC(=O)/C2=C(\Nc1ccc(N(C)C(=O)CN2CCN(C)CC2)cc1)c1ccccc1 [Compound VI, methyl (3Z)-3-[({4-[N-methyl-2-(4-methylpiperazin-1-yl)acetamido]phenyl}amino)(phenyl)methylidene]-2-oxo-2.3-dihydro-1H-indole-6-carboxylate] | 194 | transfer to the choroid and/or the sclera, nanoparticle vs microparticle composition [1]: did not differ in transfer to the choroid and/or the sclera |
| COc1cc2nccc(Oc3ccc(NC(=O)Nc4cc(C)on4)c(Cl)c3)c2cc1OC [Compound II, N-[2-chloro-4-(6,7-dimethoxyquinolin-4-yloxy)phenyl]-N′-(5-methylisoxazol-3-yl)urea hydrochloride hydrate] | – | transfer to the choroid and/or the sclera [2]: high transfer to the choroid and/or the sclera; transfer to the choroid and/or the sclera [3]: drastically enhanced transfer to the choroid and/or the sclera; concentration in the choroid, compound II vs regorafenib [4]: much higher than that of regorafenib |
| Cc1cc(C(=O)Nc2nc3cccc(Cl)c3n2[C@@H]2CCCCN(C(=O)/C=C/CN(C)C)C2)ccn1 [nazartinib] | 65.4 | – |
| C#Cc1cccc(Nc2ncnc3cc4c(cc23)OCCOCCOCCO4)c1 [icotinib] | 64.8 | – |
| CS(=O)(=O)CCNCc1ccc(-c2ccc3ncnc(Nc4ccc(OCc5cccc(F)c5)c(Cl)c4)c3c2)o1 [lapatinib] | 246 | – |
| COc1cc(N2CCC(N3CCN(C)CC3)CC2)ccc1Nc1ncc(Cl)c(Nc2ccccc2P(C)(C)=O)n1 [brigatinib] | – | half-life (in vivo; rat, 0.1 mg/kg): 137 h |
| C[C@@H]1COC(Nc2ccc3ncnc(Nc4ccc(OCc5nccs5)c(Cl)c4)c3c2)=N1 [varlitinib] | 46.1 | – |
| COCCNCc1ccc(-c2cc3nccc(Oc4ccc(NC(=S)NC(=O)Cc5ccc(F)cc5)cc4F)c3s2)nc1 [glesatinib] | 132 | – |
| C=CC(=O)Nc1cccc(Oc2nc(Nc3ccc(N4CCN(C)CC4)c(F)c3)nc3[nH]ccc23)c1 [avitinib] | – | half-life (in vivo; in vivo, 0.2 mg/kg, Half-life in choroid and sclera, EGFR inhibitors, intravenous single dose 0.2 mg/kg): 85.5 h |
| CNC(=O)c1cc(Oc2ccc(NC(=O)Nc3ccc(Cl)c(C(F)(F)F)c3)c(F)c2)ccn1 [Compound III, 4-{4-[3-(4-chloro-3-trifluoromethylphenyl)-ureido]-3-fluorophenoxy}pyridine-2-carboxylic acid methylamide] | – | transfer to the choroid [5]: very low |
| C=CC(=O)Nc1ccc2ncnc(Nc3ccc(OCc4cccc(F)c4)c(Cl)c3)c2c1 [Compound VIII, N-[4-[[3-chloro-4-[(3-fluorobenzyl)oxy]phenyl]amino]quinazolin-6-yl]acrylamide] | 52.9 | Half-life in choroid and sclera (in vivo; rat, 0.2 mg/kg): 40.1 h; transfer to the choroid and/or the sclera, nanoparticle vs microparticle composition [1]: drastically improved transfer |
| COc1cc2ncnc(Nc3ccc(F)c(Cl)c3)c2cc1NC(=O)/C=C/CN1CCCCC1 [Compound VII, (E)-N-[4-(3-chloro-4-fluoroanilino)-7-methoxyquinazolin-6-yl]-4-piperidin-1-ylbut-2-enamide] | 918 | Half-life in choroid and sclera (in vivo; rat, 0.2 mg/kg): 486 h; transfer to the choroid and/or the sclera, nanoparticle vs microparticle composition [1]: drastically improved transfer |
| COc1cc2ncnc(Nc3cccc(Cl)c3)c2cc1OC [AG-1478, N-(3-chlorophenyl)-N-(6,7-dimethoxyquinazolin-4-yl)amine] | – | half-life (in vivo; rat, 0.05 mg/kg, Half-life in choroid and sclera): 42.8 h |
| COc1cc2c(Nc3ccc(Cl)c(Cl)c3F)ncnc2cc1OC[C@@H]1C[C@@H]2CN(C)C[C@@H]2C1 [tesevatinib] | 305 | – |
| CNC(=O)c1c(C)oc2cc(Oc3ncnc4cc(OC)c(OC)cc34)ccc12 [fruquintinib] | 32.5 | – |
